Experimental data published in US20250074891A1 (Anaxis Pharma Pty Ltd., priority 2021, published 2025).

Tests used:
Settings in all cases: Table 35
[1] = target: RIP1 (Homo sapiens (Human), UniProt Q13546); assay: KINOMEscan binding assay, RIP1
[2] = target: MLKL (full length) (Homo sapiens (Human), UniProt Q8NB16); assay: KINOMEscan binding assay, MLKL (full length)
Description: (§1) Kinase assays. For most assays, kinase-tagged T7 phage strains were grown in parallel in 24-well blocks in an E. coli host derived from the BL21 strain. E. coli were grown to log-phase and infected with T7 phage from a frozen stock (multiplicity of infection=0.4) and incubated with shaking at 32° C. until lysis (90-150 minutes).
(§2) The Hill Slope was set to −1.

[3] = target: RIP3 (Homo sapiens (Human), UniProt Q9Y572); assay: KINOMEscan binding assay, RIP3
RIP3, sequence (Q9Y572 whole entry): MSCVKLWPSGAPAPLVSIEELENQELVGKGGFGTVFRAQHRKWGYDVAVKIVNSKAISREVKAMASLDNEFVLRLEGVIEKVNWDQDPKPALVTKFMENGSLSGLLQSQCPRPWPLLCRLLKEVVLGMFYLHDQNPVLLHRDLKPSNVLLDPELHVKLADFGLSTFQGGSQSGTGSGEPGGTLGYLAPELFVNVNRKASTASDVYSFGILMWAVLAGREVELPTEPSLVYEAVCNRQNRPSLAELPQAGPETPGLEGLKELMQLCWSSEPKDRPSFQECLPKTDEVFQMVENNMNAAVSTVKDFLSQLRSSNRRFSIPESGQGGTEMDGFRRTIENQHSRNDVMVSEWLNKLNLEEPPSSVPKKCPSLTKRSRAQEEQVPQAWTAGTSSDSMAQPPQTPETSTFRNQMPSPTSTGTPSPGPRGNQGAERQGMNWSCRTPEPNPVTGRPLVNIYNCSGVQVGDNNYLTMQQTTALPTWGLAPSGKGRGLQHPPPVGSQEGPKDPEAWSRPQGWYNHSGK
Description: as §1, §2

RIP1, sequence (Q13546 whole entry): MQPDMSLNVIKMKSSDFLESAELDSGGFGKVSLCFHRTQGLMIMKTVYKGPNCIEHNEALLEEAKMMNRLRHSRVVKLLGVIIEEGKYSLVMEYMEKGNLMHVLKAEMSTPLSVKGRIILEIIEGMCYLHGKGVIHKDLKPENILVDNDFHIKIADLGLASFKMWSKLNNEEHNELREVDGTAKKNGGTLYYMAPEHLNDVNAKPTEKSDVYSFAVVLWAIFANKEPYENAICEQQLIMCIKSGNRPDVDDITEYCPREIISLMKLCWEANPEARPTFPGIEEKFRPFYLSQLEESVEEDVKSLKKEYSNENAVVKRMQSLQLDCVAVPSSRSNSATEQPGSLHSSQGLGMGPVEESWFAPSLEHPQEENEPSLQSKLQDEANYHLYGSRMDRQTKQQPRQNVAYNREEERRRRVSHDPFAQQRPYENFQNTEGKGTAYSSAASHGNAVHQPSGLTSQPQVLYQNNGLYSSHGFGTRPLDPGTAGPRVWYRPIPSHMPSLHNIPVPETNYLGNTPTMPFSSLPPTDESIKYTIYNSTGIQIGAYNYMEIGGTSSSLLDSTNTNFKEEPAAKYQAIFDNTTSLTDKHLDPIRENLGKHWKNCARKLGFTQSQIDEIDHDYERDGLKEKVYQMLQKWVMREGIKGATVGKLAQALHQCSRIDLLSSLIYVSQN
MLKL (full length), sequence (Q8NB16 whole entry): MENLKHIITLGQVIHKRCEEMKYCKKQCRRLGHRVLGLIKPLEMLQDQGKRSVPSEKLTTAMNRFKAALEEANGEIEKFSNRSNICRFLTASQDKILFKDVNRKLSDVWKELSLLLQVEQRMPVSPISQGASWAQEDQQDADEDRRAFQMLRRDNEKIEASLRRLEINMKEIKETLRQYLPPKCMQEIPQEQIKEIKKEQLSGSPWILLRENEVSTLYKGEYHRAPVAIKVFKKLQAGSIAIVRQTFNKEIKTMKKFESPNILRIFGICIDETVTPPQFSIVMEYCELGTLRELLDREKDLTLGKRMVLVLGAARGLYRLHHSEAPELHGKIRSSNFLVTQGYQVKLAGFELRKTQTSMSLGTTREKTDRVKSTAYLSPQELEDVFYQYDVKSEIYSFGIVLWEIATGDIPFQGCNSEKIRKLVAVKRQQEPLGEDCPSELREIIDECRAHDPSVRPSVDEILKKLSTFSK

Kd [1] [µM] | Kd [2] [nM] | Kd [3] [µM] | SMILES
> 30 | < 10 | > 30 | NC(=O)c1c(-c2ccc(NS(=O)(=O)CC(F)(F)F)c(OCc3ccc(F)cc3)c2)n[nH]c1Nc1cccc(C(F)F)n1 [Compound 173, 5-((6-(difluoromethyl)pyridine-2-yl)amino)-3-(3-((4-fluorobenzyl)oxy)-4-((2,2,2-trifluoroethyl)sulfonamido)phenyl)-1H-pyrazole-4-carboxamide]
> 30 | < 10 | > 30 | Cc1cnc(Nc2[nH]nc(-c3ccc(NS(=O)(=O)CC(F)(F)F)c(OCc4ccc(F)cc4)c3)c2C(N)=O)cn1 [Compound 163, 3-(3-((4-fluorobenzyl)oxy)-4-((2,2,2-trifluoroethyl)sulfonamido)phenyl)-5-((5-methylpyrazin-2-yl)amino)-1H-pyrazole-4-carboxamide]
> 30 | < 10 | > 30 | C[C@H](Oc1cc(-c2n[nH]c(Nc3cc(C(F)(F)F)n(C)n3)c2C(N)=O)ccc1NS(=O)(=O)C(F)F)c1ccc(F)cc1 [Compound 277, (S)-3-(4-((difluoromethyl)sulfonamido)-3-(1-(4-fluorophenyl)ethoxy)phenyl)-5-((1-methyl-5-(trifluoromethyl)-1H-pyrazol-3-yl)amino)-1H-pyrazole-4-carboxamide]
> 30 | < 10 | > 30 | CCS(=O)(=O)Nc1ccc(-c2n[nH]c(Nc3cnccn3)c2C(N)=O)cc1OCCc1ccccc1F [Compound 211, 3-(4-(ethylsulfonamido)-3-(2-fluorophenethoxy)phenyl)-5-(pyrazin-2-ylamino)-1H-pyrazole-4-carboxamide]
> 30 | < 10 | > 30 | NC(=O)c1c(-c2ccc(NS(=O)(=O)CC(F)(F)F)c(OCc3ccc(Cl)cc3)c2)n[nH]c1Nc1ccccn1 [Compound 269, 3-{3-[(4-chlorophenyl)methoxy]-4-(2,2,2-trifluoroethanesulfonamido)phenyl}-5-[(pyridin-2-yl)amino]-1H-pyrazole-4-carboxamide]
> 30 | < 10 | > 30 | NC(=O)c1c(-c2ccc(NS(=O)(=O)C(F)F)cc2)n[nH]c1Nc1cnccn1 [Compound 63, 3-(4-((difluoromethyl)sulfonamido)phenyl)-5-(pyrazin-2-ylamino)-1H-pyrazole-4-carboxamide]
> 30 | < 10 | > 30 | CCS(=O)(=O)Nc1ccc(-c2n[nH]c(Nc3cc4ccccc4cn3)c2C(N)=O)cc1 [Compound 87, 3-(4-(ethylsulfonamido)phenyl)-5-(isoquinolin-3-ylamino)-1H-pyrazole-4-carboxamide]
> 30 | < 10 | > 30 | NC(=O)c1c(-c2ccc(NS(=O)(=O)C3CC3)cc2)n[nH]c1Nc1cnccn1 [Compound 68, 3-(4-(cyclopropanesulfonamido)phenyl)-5-(pyrazin-2-ylamino)-1H-pyrazole-4-carboxamide]
> 30 | < 10 | > 30 | COc1cnc(Nc2[nH]nc(-c3ccc(NS(=O)(=O)CC(F)(F)F)c(OCc4ccc(F)cc4)c3)c2C(N)=O)cn1 [Compound 143, 3-(3-((4-fluorobenzyl)oxy)-4-((2,2,2-trifluoroethyl)sulfonamido)phenyl)-5-((5-methoxypyrazin-2-yl)amino)-1H-pyrazole-4-carboxamide]
> 30 | < 10 | > 30 | CCS(=O)(=O)Nc1ccc(-c2n[nH]c(Nc3cccc(OC)n3)c2C(N)=O)cc1OCc1ccc(F)cc1 [Compound 11, 3-(4-(ethylsulfonamido)-3-((4-fluorobenzyl)oxy)phenyl) 5-((6-methoxypyridin-2-yl)amino)-1H-pyrazole-4-carboxamide]
> 30 | < 10 | > 30 | CCOc1cc(Nc2[nH]nc(-c3ccc(NS(=O)(=O)CC)cc3)c2C(N)=O)ccn1 [Compound 105, 5-((2-ethoxypyridin-4-yl)amino)-3-(4-(ethylsulfonamido)phenyl)-1H-pyrazole-4-carboxamide]
> 30 | < 10 | > 30 | CCS(=O)(=O)Nc1ccc(-c2n[nH]c(Nc3cnccn3)c2C(N)=O)cc1OCc1ccc(Cl)c(F)c1 [Compound 166, 3-(3-((4-chloro-3-fluorobenzyl)oxy)-4-(ethylsulfonamido)phenyl)-5-(pyrazin-2-ylamino)-1H-pyrazole-4-carboxamide]
> 30 | < 10 | > 30 | Cc1cnc(Nc2[nH]nc(-c3ccc(NS(=O)(=O)CCC(F)(F)F)c(OCc4ccc(F)cc4)c3)c2C(N)=O)cn1 [Compound 183, 3-(3-((4-fluorobenzyl)oxy)-4-((3,3,3-trifluoropropyl)sulfonamido)phenyl)-5-((5-methylpyrazin-2-yl)amino)-1H-pyrazole-4-carboxamide]
> 30 | < 10 | > 30 | NC(=O)c1c(-c2ccc(NS(=O)(=O)C(F)F)c(OCc3ccc(F)cc3)c2)n[nH]c1Nc1cccc(C(F)(F)F)n1 [Compound 217]
> 30 | < 10 | > 30 | CCS(=O)(=O)Nc1ccc(-c2n[nH]c(Nc3ccccc3)c2C(N)=O)cc1 [Compound 124, 3-(4-(ethylsulfonamido)phenyl)-5-(phenylamino)-1H-pyrazole-4-carboxamide]
> 30 | < 10 | > 30 | NC(=O)c1c(-c2ccc(NS(=O)(=O)CC(F)(F)F)c(OCc3ccc(F)cc3)c2)n[nH]c1Nc1ccccn1 [Compound 239, 3-{3-[(4-fluorophenyl)methoxy]-4-(2,2,2-trifluoroethanesulfonamido)phenyl}-5-[(pyridin-2-yl)amino]-1H-pyrazole-4-carboxamide]
> 30 | < 10 | > 30 | C[C@H](Oc1cc(-c2n[nH]c(Nc3cnccn3)c2C(N)=O)ccc1NS(=O)(=O)CC(F)(F)F)c1ccccn1 [Compound 267, 5-[(pyrazin-2-yl)amino]-3-{3-[(1S)-1-(pyridin-2-yl)ethoxy]-4-(2,2,2-trifluoroethanesulfonamido)phenyl]-1H-pyrazole-4-carboxamide]
> 30 | 10 to 1000 | > 30 | CC(C)(C)n1nc(-c2ccc(N)c(OCc3ccc(F)cc3)c2)c(C(N)=O)c1Nc1cccc(C(F)(F)F)n1 [Compound 5, 3-(4-amino-3-((4-fluorobenzyl)oxy)phenyl)-1-(tert-butyl)-5-((6-(trifluoromethyl)pyridin-2-yl)amino)-1H-pyrazole-4-carboxamide]
> 30 | < 10 | > 30 | NC(=O)c1c(-c2ccc(NS(=O)(=O)CC(F)(F)F)cc2)n[nH]c1Nc1ccc(C(F)(F)F)cn1 [Compound 153, 3-(4-((2,2,2-trifluoroethyl)sulfonamido)phenyl)-5-((5-(trifluoromethyl)pyridine-2-yl)amino)-1H-pyrazole-4-carboxamide]
> 30 | < 10 | > 30 | COCCOc1cc(Nc2[nH]nc(-c3ccc(NS(=O)(=O)CC#N)cc3)c2C(N)=O)ccn1 [Compound 110, 3-(4-((cyanomethyl)sulfonamido)phenyl)-5-((2-(2-methoxyethoxy)pyridin-4-yl)amino)-1H-pyrazole-4-carboxamide]
> 30 | < 10 | > 30 | CCS(=O)(=O)Nc1ccc(-c2n[nH]c(Nc3cnccn3)c2C(N)=O)cc1OCCc1ccccc1 [Compound 210, 3-(4-(ethylsulfonamido)-3-phenethoxyphenyl)-5-(pyrazin-2-ylamino)-1H-pyrazole-4-carboxamide]
> 30 | < 10 | > 30 | C[C@H](Oc1cc(-c2n[nH]c(Nc3cnccn3)c2C(N)=O)ccc1NS(=O)(=O)C(F)F)c1ccc(Cl)cc1 [Compound 252, 3-{3-[(1S)-1-(4-chlorophenyl)ethoxy]-4-(difluoromethanesulfonamido)phenyl}-5-[(pyrazin-2-yl)amino]-1H-pyrazole-4-carboxamide]
> 30 | < 10 | > 30 | CCS(=O)(=O)Nc1ccc(-c2n[nH]c(Nc3cnc(C(C)C)cn3)c2C(N)=O)cc1OCc1ccc(F)cc1 [Compound 34, 3-(4-(ethylsulfonamido)-3-((4-fluorobenzyl)oxy)phenyl) 5-((5-isopropylpyrazin-2-yl)amino)-1H-pyrazole-4-carboxamide]
> 30 | < 10 | > 30 | N#CCS(=O)(=O)Nc1ccc(-c2n[nH]c(Nc3cccc(C(F)(F)F)n3)c2C(N)=O)cc1 [Compound 29, 3-(4-((cyanomethyl)sulfonamido)phenyl)-5-((6-(trifluoromethyl)pyridin-2-yl)amino)-1H-pyrazole-4-carboxamide]
> 30 | < 10 | > 30 | CCC(Oc1cc(-c2n[nH]c(Nc3cnccn3)c2C(N)=O)ccc1NS(=O)(=O)C(F)F)c1ccc(F)cc1 (racemic) [Compound 233, 3-[4-(difluoromethanesulfonamido)-3-[1-(4-fluorophenyl)propoxy]phenyl]-5-[(pyrazin-2-yl)amino]-1H-pyrazole-4-carboxamide]
> 30 | < 10 | > 30 | NC(=O)c1c(-c2ccc(NS(=O)(=O)CC(F)(F)F)cc2OCc2ccc(F)cc2)n[nH]c1Nc1cnccn1 [Compound 139, 3-(2-((4-fluorobenzyl)oxy)-4-((2,2,2-trifluoroethyl)sulfonamido)phenyl)-5-(pyrazin-2-ylamino)-1H-pyrazole-4-carboxamide]
> 30 | < 10 | > 30 | CCS(=O)(=O)Nc1ccc(-c2n[nH]c(Nc3cnccn3)c2C(N)=O)cc1OC1(c2ccccc2)CC1 [Compound 152, 3-(4-(ethylsulfonamido)-3-(1-phenylcyclopropoxy)phenyl)-5-(pyrazin-2-ylamino)-1H-pyrazole-4-carboxamide]
